Source: ChEMBL document CHEMBL3885881, “DrugMatrix”

Species: Rattus norvegicus
Assay: DrugMatrix - Regimen: Daily Repeat
Assay type: toxicity, organism-based, Sprague-Dawley
Parameters: regimen Daily Repeat, gender Male, age 6-8 weeks
Conditions: in vivo, po, route oral GAVAGE, vehicle .5 % CMC; for BASOPHIL / EOSINOPHIL / ERYTHROCYTE COUNT / HEMATOCRIT / HEMOGLOBIN / LEUKOCYTE COUNT / LYMPHOCYTE / MEAN CORPUSCULAR HEMOGLOBIN / MEAN CORPUSCULAR HEMOGLOBIN CONCENTRATION / MEAN CORPUSCULAR VOLUME / MONOCYTE / NEUTROPHIL / PLATELET COUNT: tissue Blood; for ALANINE AMINOTRANSFERASE / ALBUMIN / ALKALINE PHOSPHATASE / ASPARTATE AMINOTRANSFERASE / BLOOD UREA NITROGEN / CHLORIDE / CHOLESTEROL / CREATINE PHOSPHOKINASE / CREATININE / GLUCOSE / PHOSPHORUS / POTASSIUM / SODIUM / TOTAL BILIRUBIN / TOTAL PROTEIN: tissue Plasma
[1] = 50 mg/kg, 72 h, dose level Low, time 3 day
[2] = 50 mg/kg, 120 h, dose level Low, time 5 day
[3] = 1200 mg/kg, 72 h, dose level High, time 3 day
[4] = 1200 mg/kg, 120 h, dose level High, time 5 day

In the case of `CCN1CCC[C@H]1CNC(=O)c1cc(S(N)(=O)=O)ccc1OC` [LEVOSULPIRIDE], the BASOPHIL [1] was 0%, the EOSINOPHIL [1] was 0.33% and the “ERYTHROCYTE COUNT” value [1] was 5.59 x10E6/uL. The HEMATOCRIT [1] was 33.77%, the HEMOGLOBIN [1] was 13.77 G/DL and the “LEUKOCYTE COUNT” value [1] was 14.5 x10E3/uL. The LYMPHOCYTE [1] was 87%, the “MEAN CORPUSCULAR HEMOGLOBIN” value [1] was 24.6 pg and the “MEAN CORPUSCULAR HEMOGLOBIN CONCENTRATION” value [1] was 40.77 G/DL. For the same compound, the “MEAN CORPUSCULAR VOLUME” value [1] was 60.4 fL, the MONOCYTE [1] was 1.67% and the NEUTROPHIL [1] was 11%. The “PLATELET COUNT” value [1] was 1162.67 x10E3/uL, the “ALANINE AMINOTRANSFERASE” value [1] was 41 u/L and the ALBUMIN [1] was 3.7 G/DL. For the same compound, the “ALKALINE PHOSPHATASE” value [1] was 441.67 u/L, the “ASPARTATE AMINOTRANSFERASE” value [1] was 64 u/L and the “BLOOD UREA NITROGEN” value [1] was 13.33 mg/dL. For the same compound, the CHLORIDE [1] was 106.33 MEQ/L, the CHOLESTEROL [1] was 70.33 mg/dL and the “CREATINE PHOSPHOKINASE” value [1] was 137 u/L. It also gave a CREATININE [1] of 0.5 mg/dL, a GLUCOSE [1] of 187.67 mg/dL and a PHOSPHORUS [1] of 11.53 mg/dL. The POTASSIUM [1] was 6.6 MEQ/L, the SODIUM [1] was 150.33 MEQ/L and the “TOTAL BILIRUBIN” value [1] was 0.57 mg/dL. The “TOTAL PROTEIN” value [1] was 6 G/DL, the BASOPHIL [2] was 0% and the EOSINOPHIL [2] was 0.33%. For the same compound, the “ERYTHROCYTE COUNT” value [2] was 6.32 x10E6/uL, the HEMATOCRIT [2] was 37.23% and the HEMOGLOBIN [2] was 14.57 G/DL. The “LEUKOCYTE COUNT” value [2] was 13.63 x10E3/uL, the LYMPHOCYTE [2] was 80.67% and the “MEAN CORPUSCULAR HEMOGLOBIN” value [2] was 23.03 pg. The “MEAN CORPUSCULAR HEMOGLOBIN CONCENTRATION” value [2] was 39.13 G/DL, the “MEAN CORPUSCULAR VOLUME” value [2] was 58.9 fL and the MONOCYTE [2] was 2.67%. For the same compound, the NEUTROPHIL [2] was 16.33%, the “PLATELET COUNT” value [2] was 1180.67 x10E3/uL and the “ALANINE AMINOTRANSFERASE” value [2] was 42 u/L. For the same compound, the ALBUMIN [2] was 3.7 G/DL, the “ALKALINE PHOSPHATASE” value [2] was 336 u/L and the “ASPARTATE AMINOTRANSFERASE” value [2] was 62.33 u/L. For the same compound, the “BLOOD UREA NITROGEN” value [2] was 13 mg/dL, the CHLORIDE [2] was 106 MEQ/L and the CHOLESTEROL [2] was 67.67 mg/dL. The “CREATINE PHOSPHOKINASE” value [2] was 137.33 u/L, the CREATININE [2] was 0.57 mg/dL and the GLUCOSE [2] was 188.67 mg/dL. It also gave a PHOSPHORUS [2] of 10.97 mg/dL, a POTASSIUM [2] of 6.83 MEQ/L and an SODIUM [2] of 150.67 MEQ/L. The “TOTAL BILIRUBIN” value [2] was 0.4 mg/dL, the “TOTAL PROTEIN” value [2] was 5.97 G/DL and the BASOPHIL [3] was 0%. The EOSINOPHIL [3] was 0.5%, the “ERYTHROCYTE COUNT” value [3] was 6.49 x10E6/uL and the HEMATOCRIT [3] was 38.15%. For the same compound, the HEMOGLOBIN [3] was 15.2 G/DL, the “LEUKOCYTE COUNT” value [3] was 14.55 x10E3/uL and the LYMPHOCYTE [3] was 86%. For the same compound, the “MEAN CORPUSCULAR HEMOGLOBIN” value [3] was 23.4 pg, the “MEAN CORPUSCULAR HEMOGLOBIN CONCENTRATION” value [3] was 39.85 G/DL and the “MEAN CORPUSCULAR VOLUME” value [3] was 58.75 fL. The MONOCYTE [3] was 0.5%, the NEUTROPHIL [3] was 13% and the “PLATELET COUNT” value [3] was 1325.5 x10E3/uL. For the same compound, the “ALANINE AMINOTRANSFERASE” value [3] was 42 u/L, the ALBUMIN [3] was 4 G/DL and the “ALKALINE PHOSPHATASE” value [3] was 363 u/L. The “ASPARTATE AMINOTRANSFERASE” value [3] was 58.33 u/L, the “BLOOD UREA NITROGEN” value [3] was 16.67 mg/dL and the CHLORIDE [3] was 104 MEQ/L. The CHOLESTEROL [3] was 80 mg/dL, the “CREATINE PHOSPHOKINASE” value [3] was 154.33 u/L and the CREATININE [3] was 0.6 mg/dL. It also gave a GLUCOSE [3] of 176.67 mg/dL, a PHOSPHORUS [3] of 12.6 mg/dL and a POTASSIUM [3] of 7.23 MEQ/L. The SODIUM [3] was 150 MEQ/L, the “TOTAL BILIRUBIN” value [3] was 0.67 mg/dL and the BASOPHIL [4] was 0%. The EOSINOPHIL [4] was 0.5%, the “ERYTHROCYTE COUNT” value [4] was 5.88 x10E6/uL and the HEMATOCRIT [4] was 35.5%. For the same compound, the HEMOGLOBIN [4] was 15 G/DL, the “LEUKOCYTE COUNT” value [4] was 12.3 x10E3/uL and the LYMPHOCYTE [4] was 85.5%. The “MEAN CORPUSCULAR HEMOGLOBIN” value [4] was 25.5 pg, the “MEAN CORPUSCULAR HEMOGLOBIN CONCENTRATION” value [4] was 42.4 G/DL and the “MEAN CORPUSCULAR VOLUME” value [4] was 60.25 fL. The MONOCYTE [4] was 4.5%, the NEUTROPHIL [4] was 9.5% and the “PLATELET COUNT” value [4] was 1166 x10E3/uL. The “ALANINE AMINOTRANSFERASE” value [4] was 43 u/L, the ALBUMIN [4] was 3.65 G/DL and the “ALKALINE PHOSPHATASE” value [4] was 219.5 u/L. For the same compound, the “ASPARTATE AMINOTRANSFERASE” value [4] was 64 u/L, the “BLOOD UREA NITROGEN” value [4] was 16 mg/dL and the CHLORIDE [4] was 106.5 MEQ/L. For the same compound, the CHOLESTEROL [4] was 65.5 mg/dL, the “CREATINE PHOSPHOKINASE” value [4] was 164 u/L and the CREATININE [4] was 0.6 mg/dL. For the same compound, the GLUCOSE [4] was 166.5 mg/dL, the PHOSPHORUS [4] was 11.95 mg/dL and the POTASSIUM [4] was 6.7 MEQ/L. The SODIUM [4] was 151.5 MEQ/L, the “TOTAL BILIRUBIN” value [4] was 0.35 mg/dL and the “TOTAL PROTEIN” value [4] was 6 G/DL.
